The results in this text go back to paper PMC12090182, “Repurposing of the RIPK1-Selective Benzo[1,4]oxazepin-4-one Scaffold for the Development of a Type III LIMK1/2 Inhibitor” (ACS Chemical Biology, 2025).

Holding throughout (assay type): binding
In one assay the target is LIMK1 (Homo sapiens, UniProt P53667). Kind of assay: Differential scanning fluorimetry assay for LIMK1/2. As to conditions: LIMK1, 10 μM compound.
The target in another assay is MET(Y1235D) (Homo sapiens, UniProt P08581, Y1235D). In words: biochemical. As to conditions: 1000 nM, read-out: Percent Control.
For assay [1], the target named is T1, FGFR3(G697C) (Homo sapiens, UniProt P22607, G697C). Kind of assay: biochemical. As to conditions: compound concentration 100 nM; Entrez FGFR3; read-out: Percent Control.
T1 sequence (P22607 23-806 G697C): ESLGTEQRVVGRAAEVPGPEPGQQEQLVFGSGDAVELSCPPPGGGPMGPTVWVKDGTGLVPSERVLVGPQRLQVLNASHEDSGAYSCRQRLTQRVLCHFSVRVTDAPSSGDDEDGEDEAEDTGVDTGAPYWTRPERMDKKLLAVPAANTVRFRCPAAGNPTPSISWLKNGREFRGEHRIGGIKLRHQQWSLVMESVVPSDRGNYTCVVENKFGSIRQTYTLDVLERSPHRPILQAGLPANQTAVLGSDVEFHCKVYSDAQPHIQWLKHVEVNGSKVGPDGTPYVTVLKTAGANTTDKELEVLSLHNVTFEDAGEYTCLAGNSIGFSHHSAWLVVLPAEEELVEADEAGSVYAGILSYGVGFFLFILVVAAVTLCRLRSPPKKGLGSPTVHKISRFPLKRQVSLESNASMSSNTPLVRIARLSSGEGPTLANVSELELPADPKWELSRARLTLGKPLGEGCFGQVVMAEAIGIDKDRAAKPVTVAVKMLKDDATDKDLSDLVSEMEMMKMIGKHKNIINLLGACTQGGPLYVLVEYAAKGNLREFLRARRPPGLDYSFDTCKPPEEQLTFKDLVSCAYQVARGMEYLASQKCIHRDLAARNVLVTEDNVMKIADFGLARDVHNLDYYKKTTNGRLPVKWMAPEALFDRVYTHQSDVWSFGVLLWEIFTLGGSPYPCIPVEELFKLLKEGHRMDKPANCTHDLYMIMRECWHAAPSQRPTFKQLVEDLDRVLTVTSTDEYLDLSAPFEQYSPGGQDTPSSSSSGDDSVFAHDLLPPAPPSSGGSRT
In another assay the target is KIT(V559D) (Homo sapiens, UniProt P10721, V559D). Kind of assay: biochemical. To be noted: 1000 nM, read-out: Percent Control.
The target in assay [2] is ABL1(F317I)-phosphorylated (Homo sapiens, UniProt P00519, F317I). In words: biochemical. As to conditions: read-out: Percent Control.
ABL1(F317I)-phosphorylated, sequence (P00519 whole entry F317I): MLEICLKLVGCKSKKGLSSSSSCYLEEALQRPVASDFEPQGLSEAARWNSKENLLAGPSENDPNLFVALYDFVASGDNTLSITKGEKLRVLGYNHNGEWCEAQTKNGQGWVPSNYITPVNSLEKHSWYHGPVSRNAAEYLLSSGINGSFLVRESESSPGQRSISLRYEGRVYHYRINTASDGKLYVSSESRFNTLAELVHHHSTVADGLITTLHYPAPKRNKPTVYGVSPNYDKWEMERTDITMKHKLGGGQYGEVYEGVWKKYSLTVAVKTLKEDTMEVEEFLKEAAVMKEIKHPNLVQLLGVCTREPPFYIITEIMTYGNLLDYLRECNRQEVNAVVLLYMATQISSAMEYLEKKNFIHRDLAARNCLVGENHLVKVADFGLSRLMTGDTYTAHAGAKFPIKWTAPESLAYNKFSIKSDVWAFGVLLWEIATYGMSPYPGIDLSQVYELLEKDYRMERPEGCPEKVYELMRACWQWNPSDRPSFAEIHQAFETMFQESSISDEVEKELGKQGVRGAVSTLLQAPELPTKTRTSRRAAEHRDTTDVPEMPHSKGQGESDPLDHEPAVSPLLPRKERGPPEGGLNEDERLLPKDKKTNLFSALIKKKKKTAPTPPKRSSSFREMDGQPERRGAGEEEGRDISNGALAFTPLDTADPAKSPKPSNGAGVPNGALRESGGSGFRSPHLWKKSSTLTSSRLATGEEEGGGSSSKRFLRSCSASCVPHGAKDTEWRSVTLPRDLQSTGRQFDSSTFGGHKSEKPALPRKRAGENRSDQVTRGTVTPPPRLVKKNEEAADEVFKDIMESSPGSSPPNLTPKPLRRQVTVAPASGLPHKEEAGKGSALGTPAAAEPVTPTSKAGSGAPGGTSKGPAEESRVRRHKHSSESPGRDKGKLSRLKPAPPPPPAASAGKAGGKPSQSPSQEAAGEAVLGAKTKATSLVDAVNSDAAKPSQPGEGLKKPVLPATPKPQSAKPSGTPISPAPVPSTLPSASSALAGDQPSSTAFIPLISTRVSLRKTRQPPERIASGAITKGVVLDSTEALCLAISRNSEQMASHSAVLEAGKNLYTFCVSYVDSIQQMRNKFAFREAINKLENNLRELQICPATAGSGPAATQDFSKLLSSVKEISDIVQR
The target in the next assay is BRAF(V600E) (Homo sapiens, UniProt P15056, V600E). Kind of assay: biochemical. As to conditions: compound concentration 100 nM; Entrez BRAF; read-out: Percent Control.
Another assay has as its target BRD4 (Homo sapiens, UniProt O60885). Kind of assay: DSF selectivity screening. As to conditions: 10 μM compound.
The next assay addresses EGFR(L858R) (Homo sapiens, UniProt P00533, L858R). Kind of assay: biochemical. As to conditions: 1000 nM, read-out: Percent Control.
The next assay concerns the target RET(V804L) (Homo sapiens, UniProt P07949, V804L). In words: biochemical. As to conditions: compound concentration 100 nM; Entrez RET; read-out: Percent Control.
Another assay has as its target CDKL1A (Homo sapiens, UniProt Q00532). In words: DSF selectivity screening. To be noted: 10 μM compound. The procedure:
(§1) The assay was performed as previously described.[29],[35] Briefly, recombinant protein kinase domains at a concentration of 2 μM were mixed with a 10 μM compound in a buffer containing 20 mM HEPES, pH 7.5, and 500 mM NaCl. SYPRO Orange (5000×, Invitrogen) was added as a fluorescence probe (1 μL per mL). Subsequently, temperature-dependent protein unfolding profiles were measured using a QuantStudio 5 real-time PCR machine (Thermo Fisher). Excitation and emission filters were set to 465 and 590 nm, respectively. The temperature was raised with a step rate of 3 °C per minute. Data points were analyzed with internal software (Thermal Shift Software version 1.4, Thermo Fisher) using the Boltzmann equation to determine the inflection point of the transition curve (Table S4).

A further assay deals with FECH (Homo sapiens, UniProt P22830). Kind of assay: DSF selectivity screening. To be noted: 10 μM compound. The protocol:
as §1

The target in another assay is MST4A (Homo sapiens, UniProt Q9P289). In words: DSF selectivity screening. As to conditions: 10 μM compound. The protocol:
as §1

The next assay concerns the target SRCA (Homo sapiens, UniProt P12931). In words: DSF selectivity screening. To be noted: 10 μM compound. The procedure: as §1
Another assay addresses BMXA (Homo sapiens, UniProt P51813). In words: DSF selectivity screening. To be noted: 10 μM compound. The protocol:
as §1

The next assay addresses MERTKA (Homo sapiens, UniProt Q12866). In words: DSF selectivity screening. As to conditions: 10 μM compound. The procedure: as §1
The next assay deals with ABL1A (Homo sapiens, UniProt P00519). Kind of assay: DSF selectivity screening. To be noted: 10 μM compound. The procedure: as §1
ABL1A, sequence (P00519 229-500): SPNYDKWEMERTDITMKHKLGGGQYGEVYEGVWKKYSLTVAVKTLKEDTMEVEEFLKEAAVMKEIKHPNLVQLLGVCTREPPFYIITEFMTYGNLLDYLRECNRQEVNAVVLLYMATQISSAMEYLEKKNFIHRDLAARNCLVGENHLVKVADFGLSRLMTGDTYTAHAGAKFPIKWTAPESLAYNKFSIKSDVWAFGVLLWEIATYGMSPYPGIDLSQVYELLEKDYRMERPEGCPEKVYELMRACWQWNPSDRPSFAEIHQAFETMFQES
Another assay has as its target STK39A (Homo sapiens, UniProt Q9UEW8). Kind of assay: DSF selectivity screening. As to conditions: 10 μM compound. The protocol: as §1
For a further assay, the target named is STK4A (Homo sapiens, UniProt Q13043). In words: DSF selectivity screening. To be noted: 10 μM compound. The protocol:
as §1

In another assay the target is DYRK1AA (Homo sapiens, UniProt Q13627). Kind of assay: DSF selectivity screening. To be noted: 10 μM compound. The protocol: as §1
For another assay, the target named is FLT1A (Homo sapiens, UniProt P17948). In words: DSF selectivity screening. To be noted: 10 μM compound. The procedure:
as §1

The next assay has as its target CAMK2DA (Homo sapiens, UniProt Q13557). Kind of assay: DSF selectivity screening. As to conditions: 10 μM compound. The procedure: as §1
The target in a further assay is MAPK10A (Homo sapiens, UniProt P53779). Kind of assay: DSF selectivity screening. To be noted: 10 μM compound. The protocol:
as §1

The target in another assay is AAK1A (Homo sapiens, UniProt Q2M2I8). In words: DSF selectivity screening. As to conditions: 10 μM compound. The procedure: as §1
Another assay has as its target PIM1A (Homo sapiens, UniProt P11309). In words: DSF selectivity screening. To be noted: 10 μM compound. The protocol: as §1
The target of the next assay is EPHB3A (Homo sapiens, UniProt P54753). In words: DSF selectivity screening. As to conditions: 10 μM compound. The procedure:
as §1

The next assay concerns the target GSG2A (Homo sapiens, UniProt Q8TF76). Kind of assay: DSF selectivity screening. As to conditions: 10 μM compound. The procedure:
as §1

In a further assay the target is PIM3A (Homo sapiens, UniProt Q86V86). Kind of assay: DSF selectivity screening. As to conditions: 10 μM compound. The procedure:
as §1

Another assay addresses AURKBA (Homo sapiens, UniProt Q96GD4). In words: DSF selectivity screening. As to conditions: 10 μM compound. The protocol:
as §1

Another assay addresses DMPKA (Homo sapiens, UniProt Q09013). Kind of assay: DSF selectivity screening. To be noted: 10 μM compound. The protocol: as §1
In the next assay the target is DCAMKL1A (Homo sapiens, UniProt O15075). In words: DSF selectivity screening. To be noted: 10 μM compound. The procedure:
as §1

In another assay the target is HIPK2 (Homo sapiens, UniProt Q9H2X6). Kind of assay: DSF selectivity screening. To be noted: 10 μM compound. The protocol:
as §1

The target of the next assay is BRAFA (Homo sapiens, UniProt P15056). In words: DSF selectivity screening. To be noted: 10 μM compound. The protocol: as §1
BRAFA, sequence (P15056 448-723): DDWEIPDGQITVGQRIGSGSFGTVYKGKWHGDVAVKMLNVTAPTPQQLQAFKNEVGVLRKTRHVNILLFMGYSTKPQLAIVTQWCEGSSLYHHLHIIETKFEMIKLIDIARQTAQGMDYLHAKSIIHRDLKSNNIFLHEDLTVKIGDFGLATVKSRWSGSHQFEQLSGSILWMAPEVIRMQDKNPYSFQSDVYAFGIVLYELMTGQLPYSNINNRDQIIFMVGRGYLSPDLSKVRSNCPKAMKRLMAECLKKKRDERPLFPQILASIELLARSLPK
The target of a further assay is EPHA5A (Homo sapiens, UniProt P54756). Kind of assay: DSF selectivity screening. As to conditions: 10 μM compound. The protocol:
as §1

A further assay concerns the target EPHB1A (Homo sapiens, UniProt P54762). Kind of assay: DSF selectivity screening. As to conditions: 10 μM compound. The protocol:
as §1

The next assay concerns the target EPHA4A (Homo sapiens, UniProt P54764). In words: DSF selectivity screening. To be noted: 10 μM compound. The procedure: as §1
The target in another assay is PDK4A (Homo sapiens, UniProt Q16654). In words: DSF selectivity screening. To be noted: 10 μM compound. The procedure: as §1
Assay [3] has as its target T1, FGFR3(G697C). Kind of assay: biochemical. To be noted: read-out: Percent Control.

EPHA5A, sequence (P54756 653-939): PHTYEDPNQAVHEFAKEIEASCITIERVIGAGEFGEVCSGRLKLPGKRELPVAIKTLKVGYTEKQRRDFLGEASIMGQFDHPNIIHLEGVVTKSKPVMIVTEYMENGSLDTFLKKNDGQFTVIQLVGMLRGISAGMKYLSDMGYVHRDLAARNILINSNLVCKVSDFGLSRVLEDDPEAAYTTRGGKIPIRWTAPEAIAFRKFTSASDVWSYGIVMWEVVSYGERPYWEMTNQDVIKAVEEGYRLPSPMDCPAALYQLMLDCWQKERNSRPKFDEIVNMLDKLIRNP
HIPK2, sequence (Q9H2X6 199-527): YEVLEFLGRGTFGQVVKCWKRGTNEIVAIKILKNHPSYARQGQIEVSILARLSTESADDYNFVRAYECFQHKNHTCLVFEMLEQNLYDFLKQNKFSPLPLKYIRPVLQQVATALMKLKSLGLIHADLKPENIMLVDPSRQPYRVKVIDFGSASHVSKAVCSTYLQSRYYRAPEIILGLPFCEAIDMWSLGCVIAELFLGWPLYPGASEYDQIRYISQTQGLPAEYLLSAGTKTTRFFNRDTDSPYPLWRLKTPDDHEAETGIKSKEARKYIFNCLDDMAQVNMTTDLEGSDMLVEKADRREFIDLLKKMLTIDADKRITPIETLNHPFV
EPHB1A, sequence (P54762 602-896): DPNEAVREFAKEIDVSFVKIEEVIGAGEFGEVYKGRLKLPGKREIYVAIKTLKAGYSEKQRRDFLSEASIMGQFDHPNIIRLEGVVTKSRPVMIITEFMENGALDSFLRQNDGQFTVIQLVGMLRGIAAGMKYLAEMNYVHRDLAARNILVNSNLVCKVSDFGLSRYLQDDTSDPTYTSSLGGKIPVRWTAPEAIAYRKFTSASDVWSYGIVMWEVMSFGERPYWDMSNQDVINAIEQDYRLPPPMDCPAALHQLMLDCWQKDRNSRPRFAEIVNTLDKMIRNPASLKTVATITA
MAPK10A, sequence (P53779 39-402): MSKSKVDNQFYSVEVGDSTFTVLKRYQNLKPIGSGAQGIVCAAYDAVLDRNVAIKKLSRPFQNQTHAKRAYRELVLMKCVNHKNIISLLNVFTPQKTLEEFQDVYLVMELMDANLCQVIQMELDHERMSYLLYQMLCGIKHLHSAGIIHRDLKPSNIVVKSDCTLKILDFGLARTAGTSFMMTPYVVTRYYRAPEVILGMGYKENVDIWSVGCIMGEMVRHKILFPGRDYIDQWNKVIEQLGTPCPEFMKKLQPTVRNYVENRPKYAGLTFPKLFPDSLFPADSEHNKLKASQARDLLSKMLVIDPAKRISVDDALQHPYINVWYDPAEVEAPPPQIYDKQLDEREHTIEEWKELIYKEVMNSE
STK4A, sequence (Q13043 30-281): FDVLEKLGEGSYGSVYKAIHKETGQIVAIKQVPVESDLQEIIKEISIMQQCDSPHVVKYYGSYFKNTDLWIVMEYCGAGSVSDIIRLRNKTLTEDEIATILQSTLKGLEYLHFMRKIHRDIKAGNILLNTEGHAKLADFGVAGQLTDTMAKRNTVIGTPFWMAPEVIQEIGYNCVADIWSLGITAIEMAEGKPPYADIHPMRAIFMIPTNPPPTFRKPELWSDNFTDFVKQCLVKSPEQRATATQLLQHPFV
DCAMKL1A, sequence (O15075 372-649): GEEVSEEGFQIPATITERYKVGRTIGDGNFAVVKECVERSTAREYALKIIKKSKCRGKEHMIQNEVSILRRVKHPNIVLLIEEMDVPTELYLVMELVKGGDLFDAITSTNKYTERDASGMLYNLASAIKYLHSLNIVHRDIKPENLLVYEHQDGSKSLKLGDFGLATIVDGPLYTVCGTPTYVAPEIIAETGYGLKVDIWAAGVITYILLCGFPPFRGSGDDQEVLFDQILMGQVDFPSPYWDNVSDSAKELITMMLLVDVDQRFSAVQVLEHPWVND
MERTKA, sequence (Q12866 571-864): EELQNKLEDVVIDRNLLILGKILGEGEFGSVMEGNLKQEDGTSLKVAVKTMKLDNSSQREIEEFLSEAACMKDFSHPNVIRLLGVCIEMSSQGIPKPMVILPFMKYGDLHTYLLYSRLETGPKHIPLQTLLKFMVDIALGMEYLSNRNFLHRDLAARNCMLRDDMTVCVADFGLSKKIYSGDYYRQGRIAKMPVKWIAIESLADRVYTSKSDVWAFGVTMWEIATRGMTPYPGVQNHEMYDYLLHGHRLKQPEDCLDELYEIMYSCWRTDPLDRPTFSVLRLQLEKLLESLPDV
Description for LIMK1: The assay was performed according to a previously established protocol. […] The compounds to be tested were added to a final concentration of 10 μM. […] Data were analyzed with MxPro software.

As to `CN1C(=O)[C@@H](N2CCc3c(C(N)=O)nn(Cc4ccccc4)c3C2=O)COc2ccccc21` [Compound 11], the “ΔTM (stabilization in the DSF assay)” value at LIMK1 is “inactive”.

Regarding `CN1C(=O)[C@@H](N2CCc3c(nn(Cc4ccccc4)c3C(N)=O)C2=O)COc2cc(Cl)ccc21` [Compound 10, (S)-2-benzyl-6-(8-chloro-5-methyl-4-oxo-2,3,4,5-tetrahydrobenzo[b][1,4]oxazepin-3-yl)-7-oxo-4,5,6,7-tetrahydro-2H-pyrazolo[3,4-c]pyridine-3-carboxamide], the remaining activity at 1 µM stood at 93% at MET(Y1235D); 85% on KIT(V559D); 100% in [2]; 100% on EGFR(L858R); 100% on FGFR3(G697C) [3]. In addition, the figures for the remaining activity at 0.1 µM on FGFR3(G697C) [1], on BRAF(V600E) and on RET(V804L) were 92%, 100% and 84%, respectively. The thermal shift (ΔTm) at 10 µM at BRD4 is -1.4 °C; on CDKL1A it was 0 °C; on FECH, -0.6 °C; on MST4A, -0.1 °C; at SRCA it was 0.1 °C; at BMXA, 0.1 °C. For the same molecule, the thermal shift (ΔTm) at 10 µM is 0.1 °C at MERTKA; -0.1 °C on ABL1A; 0.1 °C at STK39A; -0.5 °C on STK4A; 0 °C at DYRK1AA; 0.2 °C on FLT1A. Also, the ΔTm at 10 µM at CAMK2DA was 0.4 °C; on MAPK10A, 0 °C; on AAK1A, 0.1 °C; on PIM1A it was -0.9 °C; on EPHB3A, 0.2 °C; at GSG2A, 0.2 °C. Also, the ΔTm at 10 µM on PIM3A was found to be 0.5 °C; on AURKBA it was 0.2 °C; at DMPKA it was 0.1 °C; on DCAMKL1A, 0 °C; on HIPK2, 0.3 °C; on BRAFA, 0.1 °C. Further, the shift in melting temperature (ΔTm) at 10 µM stood at 0 °C at EPHA5A, 0.1 °C on EPHB1A, 0.2 °C at EPHA4A and 0 °C at PDK4A.

A word on the ΔTm: it is the change in melting temperature against a reference sample.
